Target: T1, β‐glucosidase (GH1 family, bglB) (Paenibacillus polymyxa, UniProt P22505)
T1 construct: full-length protein encoded by bglB (448 aa, GenBank M60211.1), six His-tags, pET-28a(+), expressed in E. coli BL21(DE3)
Test: LSPR (enzyme immobilised on COOH chip, […] model); supported by fluorescence quenching, UV-Vis and CD
Format: binding

T1 sequence (P22505 whole entry): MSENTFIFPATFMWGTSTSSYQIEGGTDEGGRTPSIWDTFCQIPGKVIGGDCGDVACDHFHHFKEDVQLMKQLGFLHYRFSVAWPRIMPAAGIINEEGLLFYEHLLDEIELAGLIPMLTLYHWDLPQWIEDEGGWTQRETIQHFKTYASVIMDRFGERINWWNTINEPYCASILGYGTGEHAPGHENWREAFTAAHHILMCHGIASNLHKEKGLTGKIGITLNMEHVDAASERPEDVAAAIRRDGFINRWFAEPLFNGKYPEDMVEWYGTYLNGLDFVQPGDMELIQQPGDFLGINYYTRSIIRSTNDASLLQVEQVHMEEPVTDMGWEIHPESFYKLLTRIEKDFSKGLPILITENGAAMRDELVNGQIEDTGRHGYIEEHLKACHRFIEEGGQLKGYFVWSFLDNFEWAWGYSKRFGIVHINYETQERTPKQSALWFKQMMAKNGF

Kd: 524 µM
Compound: CC(C)=CCC[C@](C)(O[C@@H]1O[C@H](CO[C@@H]2O[C@H](CO)[C@@H](O)[C@H](O)[C@H]2O)[C@@H](O)[C@H](O)[C@H]1O)[C@H]1CC[C@]2(C)[C@@H]1[C@H](O)C[C@@H]1[C@@]3(C)CC[C@H](O[C@@H]4O[C@H](CO)[C@@H](O)[C@H](O)[C@H]4O[C@@H]4O[C@H](CO)[C@@H](O)[C@H](O)[C@H]4O)C(C)(C)[C@@H]3CC[C@]12C [ginsenoside Rb1]
